From US6472391B2, “Nitrogen-containing heterocyclic compounds” (Millennium Pharmaceuticals, Inc., priority 1996, dated 2002)

melting point | Compound
202 to 204 °C | COc1cc2ncnc(N3CCN(C(=S)NCc4ccc(C)cc4)CC3)c2cc1OC [Compound 147, 4-(6,7-Dimethoxy-4-quinazolinyl)-N-(4-methylbenzyl)-1-piperazinethiocarboxamide]
195 to 197 °C | CCc1cccc(NC(=S)N2CCN(c3ncnc4cc(OC)c(OC)cc34)CC2)c1 [Compound 149, 4-(6,7-Dimethoxy-4-quinazolinyl)-N-(3-ethylphenyl)-1-piperazinethiocarboxamide]
196 to 197 °C | COc1cc2ncnc(N3CCN(C(=O)Nc4cccc(C(C)C)c4)CC3)c2cc1OC [Compound 150, 4-(6,7-Dimethoxy-4-quinazolinyl)-N-(3-isopropylphenyl)-1-piperazinecarboxamide]
194 to 195 °C | COc1cc2ncnc(N3CCN(C(=S)Nc4ccc(C(C)C)cc4)CC3)c2cc1OC [Compound 152, 4-(6,7-Dimethoxy-4-quinazolinyl)-N-(4-isopropylphenyl)-1-piperazinethiocarboxamide]
135 to 136 °C | COc1cc2ncnc(N3CCN(C(=O)NCc4ccc(C(C)C)cc4)CC3)c2cc1OC [Compound 153, 4-(6,7-Dimethoxy-4-quinazolinyl)-N-(4-isopropylbenzyl)-1-piperazinecarboxamide]
195 to 197 °C | COc1cc2ncnc(N3CCN(C(=O)NCc4ccc(C(F)(F)F)cc4)CC3)c2cc1OC [Compound 160, 4-(6,7-Dimethoxy-4-quinazolinyl)-N-(4-trifluoromethylbenzyl)-1-piperazinecarboxamide]
106 to 109 °C | CCC[C@H]1CC[C@H](c2ccc(NC(=S)N3CCN(c4ncnc5cc(OC)c(OC)cc45)CC3)cc2)CC1 [Compound 169, 4-(6,7-Dimethoxy-4-quinazolinyl)-N-[trans-4-(4-propylcyclohexyl)phenyl]-1-piperazinethiocarboxamide]
100 to 102 °C | COc1cc2ncnc(N3CCN(C(=S)NCc4cccc(F)c4)CC3)c2cc1OC [Compound 171, 4-(6,7-Dimethoxy-4-quinazolinyl)-N-(3-fluorobenzyl)-1-piperazinethiocarboxamide]
200 to 201 °C | COc1cc2ncnc(N3CCN(C(=O)NCc4ccc(F)cc4)CC3)c2cc1OC [Compound 172, 4-(6,7-Dimethoxy-4-quinazolinyl)-N-(4-fluorobenzyl)-1-piperazinecarboxamide]
217 to 218 °C | COc1cc2ncnc(N3CCN(C(=S)NCc4ccc(F)cc4)CC3)c2cc1OC [Compound 173, 4-(6,7-Dimethoxy-4-quinazolinyl)-N-(4-fluorobenzyl)-1-piperazinethiocarboxamide]
222 to 224 °C | COc1cc2ncnc(N3CCN(C(=S)Nc4cccc(Cl)c4)CC3)c2cc1OC [Compound 175, N-(3-Chlorophenyl)-4-(6,7-dimethoxy-4-quinazolinyl)-1-piperazinethiocarboxamide]
166 to 168 °C | COc1cc2ncnc(N3CCN(C(=S)NC(=O)c4ccc(Cl)cc4)CC3)c2cc1OC [Compound 179, N-(4-Chlorobenzoyl)-4-(6,7-dimethoxy-4-quinazolinyl)-1-piperazinethiocarboxamide]
170 to 171 °C | COc1cc2ncnc(N3CCN(C(=S)Nc4ccc(Br)cc4)CC3)c2cc1OC [Compound 182, N-(4-Bromophenyl)-4-(6,7-dimethoxy-4-quinazolinyl)-1-piperazinethiocarboxamide]
217 to 218 °C | COc1cc2ncnc(N3CCN(C(=S)NCc4ccc(Br)cc4)CC3)c2cc1OC [Compound 185, N-(4-Bromobenzyl)-4-(6,7-dimethoxy-4-quinazolinyl)-1-piperazinethiocarboxamide]
108 to 110 °C | COc1cc2ncnc(N3CCN(C(=S)NCc4ccc(C)c(Cl)c4)CC3)c2cc1OC [Compound 190, N-(3-Chloro-4-methylbenzyl)-4-(6,7-dimethoxy-4-quinazolinyl)-1-piperazinethiocarboxamide]
160 to 161 °C | COc1cc2ncnc(N3CCN(C(=S)Nc4ccc(Br)c(C)c4)CC3)c2cc1OC [Compound 191, N-(4-Bromo-3-methylphenyl)-4-(6,7-dimethoxy-4-quinazolinyl)-1-piperazinethiocarboxamide]
200 to 201 °C | COc1cc2ncnc(N3CCN(C(=O)Nc4ccc(F)c(Cl)c4)CC3)c2cc1OC [Compound 193, N-(3-Chloro-4-fluorophenyl)-4-(6,7-dimethoxy-4-quinazolinyl)-1-piperazinecarboxamide]
197 to 200 °C | COc1cc2ncnc(N3CCN(C(=S)NCc4ccc(Cl)c(Cl)c4)CC3)c2cc1OC [Compound 195, N-(3,4-Dichlorobenzyl)-4-(6,7-dimethoxy-4-quinazolinyl)-1-piperazinethiocarboxamide]
196 to 197 °C | COc1ccc(NC(=S)N2CCN(c3ncnc4cc(OC)c(OC)cc34)CC2)cc1 [Compound 196, 4-(6,7-Dimethoxy-4-quinazolinyl)-N-(4-methoxyphenyl)-1-piperazinethiocarboxamide]
147 to 148 °C | COc1ccc(CNC(=O)N2CCN(c3ncnc4cc(OC)c(OC)cc34)CC2)cc1 [Compound 198, 4-(6,7-Dimethoxy-4-quinazolinyl)-N-(4-methoxybenzyl)-1-piperazinecarboxamide]
201 to 204 °C | COc1ccc(CNC(=S)N2CCN(c3ncnc4cc(OC)c(OC)cc34)CC2)cc1 [Compound 199, 4-(6,7-Dimethoxy-4-quinazolinyl)-N-(4-methoxybenzyl)-1-piperazinethiocarboxamide]

The remaining lines, values behind:

Compound | melting point
CCc1cccc(NC(=O)N2CCN(c3ncnc4cc(OC)c(OC)cc34)CC2)c1 [Compound 148, 4-(6,7-Dimethoxy-4-quinazolinyl)-N-(3-ethylphenyl)-1-piperazinecarboxamide] | 207 to 208 °C
COc1cc2ncnc(N3CCN(C(=S)Nc4cccc(C(C)C)c4)CC3)c2cc1OC [Compound 151, 4-(6,7-Dimethoxy-4-quinazolinyl)-N-(3-isopropylphenyl)-1-piperazinethiocarboxamide] | 169 to 171 °C
COc1cc2ncnc(N3CCN(C(=S)NCc4ccc(C(C)C)cc4)CC3)c2cc1OC [Compound 154, 4-(6,7-Dimethoxy-4-quinazolinyl)-N-(4-isopropylbenzyl)-1-piperazinethiocarboxamide] | 178 to 179 °C
COc1cc2ncnc(N3CCN(C(=O)Nc4ccc(C(C)(C)C)cc4)CC3)c2cc1OC [Compound 156, N-(4-tert-Butylphenyl)-4-(6,7-dimethoxy-4-quinazolinyl)-1-piperazinecarboxamide] | 109 to 111 °C
COc1cc2ncnc(N3CCN(C(=S)NCc4ccc(C(C)(C)C)cc4)CC3)c2cc1OC [Compound 157, N-(4-tert-Butylbenzyl)-4-(6,7-dimethoxy-4-quinazolinyl)-1-piperazinethiocarboxamide] | 104 to 105 °C
COc1cc2ncnc(N3CCN(C(=O)Nc4ccc(OC(F)F)cc4)CC3)c2cc1OC [Compound 158, N-(4-Difluoromethoxyphenyl)-4-(6,7-dimethoxy-4-quinazolinyl)-1-piperazinecarboxamide] | 190 to 192 °C
COc1cc2ncnc(N3CCN(C(=S)Nc4ccc(C(F)(F)F)cc4)CC3)c2cc1OC [Compound 159, 4-(6,7-Dimethoxy-4-quinazolinyl)-N-(4-trifluoromethylphenyl)-1-piperazinethiocarboxamide] | 117 to 119 °C
COc1cc2ncnc(N3CCN(C(=S)NCc4ccc(C(F)(F)F)cc4)CC3)c2cc1OC [Compound 161, 4-(6,7-Dimethoxy-4-quinazolinyl)-N-(4-trifluoromethylbenzyl)-1-piperazinethiocarboxamide] | 216 to 217 °C
COc1cc2ncnc(N3CCN(C(=O)Nc4cccc(C(F)(F)F)c4)CC3)c2cc1OC [Compound 162, 4-(6,7-Dimethoxy-4-quinazolinyl)-N-(3-trifluoromethylphenyl)-1-piperazinecarboxamide] | 180 to 181 °C
COc1cc2ncnc(N3CCN(C(=S)Nc4cccc(C(F)(F)F)c4)CC3)c2cc1OC [Compound 163, 4-(6,7-Dimethoxy-4-quinazolinyl)-N-(3-trifluoromethylphenyl)-1-piperazinethiocarboxamide] | 171 to 172 °C
C=Cc1ccc(NC(=O)N2CCN(c3ncnc4cc(OC)c(OC)cc34)CC2)cc1 [Compound 164, 4-(6,7-Dimethoxy-4-quinazolinyl)-N-(4-vinylphenyl)-1-piperazinecarboxamide] | 214 to 216 °C
COc1cc2ncnc(N3CCN(C(=S)NCc4ccccc4Cl)CC3)c2cc1OC [Compound 176, N-(2-Chlorobenzyl)-4-(6,7-dimethoxy-4-quinazolinyl)-1-piperazinethiocarboxamide] | 175 to 176 °C
COc1cc2ncnc(N3CCN(C(=S)Nc4cccc(Br)c4)CC3)c2cc1OC [Compound 181, N-(3-Bromophenyl)-4-(6,7-dimethoxy-4-quinazolinyl)-1-piperazinethiocarboxamide] | 220 to 222 °C
COc1cc2ncnc(N3CCN(C(=O)NCc4ccc(Br)cc4)CC3)c2cc1OC [Compound 184, N-(4-Bromobenzyl)-4-(6,7-dimethoxy-4-quinazolinyl)-1-piperazinecarboxamide] | 211 to 212 °C
COc1cc2ncnc(N3CCN(C(=O)Nc4cccc(I)c4)CC3)c2cc1OC [Compound 186, 4-(6,7-Dimethoxy-4-quinazolinyl)-N-(3-iodophenyl)-1-piperazinecarboxamide] | 205 to 208 °C
COc1cccc(CNC(=S)N2CCN(c3ncnc4cc(OC)c(OC)cc34)CC2)c1 [Compound 197, 4-(6,7-Dimethoxy-4-quinazolinyl)-N-(3-methoxybenzyl)-1-piperazinethiocarboxamide] | 146 to 147 °C
CCOc1ccc(CNC(=O)N2CCN(c3ncnc4cc(OC)c(OC)cc34)CC2)cc1 [Compound 200, 4-(6,7-Dimethoxy-4-quinazolinyl)-N-(4-ethoxybenzyl)-1-piperazinecarboxamide] | 176 to 177 °C
CCCOc1ccc(NC(=O)N2CCN(c3ncnc4cc(OC)c(OC)cc34)CC2)cc1 [Compound 201, 4-(6,7-Dimethoxy-4-quinazolinyl)-N-(4-propoxyphenyl)-1-piperazinecarboxamide] | 218 to 220 °C
